In publication PMC3931418 (Nature, 2014):

Tests used:
WT δ-OR = WT δ-OR (Homo sapiens, UniProt P41143); assay: δ-OR β-arrestin recruitment assay
δ-OR [1] = conditions: cited from earlier work
[2] = system: δ-OR sodium-anchored residue mutants; assay: δ-OR β-arrestin recruitment assay; conditions: sodium-anchored residue mutants compared to WT
[3] = system: δ-OR sodium-anchored residue mutants; assay: cAMP assay; format: cell-based, human
δ-OR [4] = target: δ-OR (Homo sapiens, UniProt P41143); assay: cAMP assay; format: cell-based; conditions: receptors transfected with 15 µg DNA
Sequence of δ-OR (Homo sapiens, UniProt P41143) (P41143 whole entry): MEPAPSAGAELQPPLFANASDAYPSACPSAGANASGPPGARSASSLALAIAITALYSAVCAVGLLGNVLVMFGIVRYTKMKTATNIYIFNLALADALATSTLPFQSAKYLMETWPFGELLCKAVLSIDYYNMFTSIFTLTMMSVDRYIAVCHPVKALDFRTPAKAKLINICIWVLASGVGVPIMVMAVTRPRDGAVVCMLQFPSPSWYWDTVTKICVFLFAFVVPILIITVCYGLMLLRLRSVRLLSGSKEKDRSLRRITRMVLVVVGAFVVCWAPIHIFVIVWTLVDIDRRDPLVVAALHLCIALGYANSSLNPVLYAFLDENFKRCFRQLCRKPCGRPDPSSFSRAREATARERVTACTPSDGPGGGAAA

δ-OR D95N (HEK293) = δ-OR D95N (HEK293) (Homo sapiens, UniProt P41143, D95N)
Sequence of δ-OR D95N (HEK293) (P41143 whole entry D95N): as the sequence (P41143 whole entry) above, with D95N counted along it

δ-OR N131A (HEK293) = δ-OR N131A (HEK293) (Homo sapiens, UniProt P41143, N131A); format: binding
Sequence of δ-OR N131A (HEK293) (P41143 whole entry N131A): as the sequence (P41143 whole entry) above, with N131A counted along it

δ-OR WT (HEK293) = δ-OR WT (HEK293) (Homo sapiens, UniProt P41143); format: binding
Sequence of δ-OR WT (HEK293) (P41143 whole entry): as the sequence (P41143 whole entry) above

δ-OR D95A (HEK293) = δ-OR D95A (HEK293) (Homo sapiens, UniProt P41143, D95A)
Sequence of δ-OR D95A (HEK293) (P41143 whole entry D95A): as the sequence (P41143 whole entry) above, with D95A counted along it

[5] = cooperativity of sodium with DADLE

Sequence of WT δ-OR (P41143 whole entry): as the sequence (P41143 whole entry) above

## Oc1ccc2c3c1O[C@H]1c4oc5ccccc5c4C[C@@]4(O)[C@@H](C2)N(CC2CC2)CC[C@]314 [naltriben]
WT δ-OR
  agonist activity at the β-arrestin pathway: no apparent agonist activity

## C=CCN1C[C@H](C)N([C@H](c2ccc(C(=O)N(CC)CC)cc2)c2cccc(O)c2)C[C@H]1C
δ-OR [1]
  effect of sodium ions on binding to the receptor: minimally affected
[2]
  β-arrestin signaling: low to moderate reduction
[3]; sodium-anchored residue mutants compared to WT
  G-protein signaling: low to moderate reduction

## O=C1/C(=C/c2ccccc2)C[C@@]2(O)[C@H]3Cc4ccc(O)c5c4[C@@]2(CCN3CC2CC2)[C@H]1O5 [BNTX]
WT δ-OR
  agonist activity at the β-arrestin pathway: no apparent agonist activity

## Oc1ccc2c3c1O[C@H]1c4[nH]c5ccccc5c4C[C@@]4(O)[C@@H](C2)N(CC2CC2)CC[C@]314 [naltrindole]
δ-OR [4]
  activity at Gαi signaling: weak partial agonist activity
WT δ-OR
  agonist activity at the β-arrestin pathway: no apparent agonist activity

## DADLE
[3]; Asp95Ala, Asn310Ala and Asn314Ala mutants
  G protein agonist efficacy: low to moderate reduction

## [Na+] [sodium]
δ-OR D95N (HEK293)
  Hill Coefficient: NAE
  Na+ KB: NAE
  Na+ pKB ± SEM: NAE
  pα ± SEM: NAE
  α: NAE
δ-OR N131A (HEK293)
  Hill Coefficient: NAE
  Na+ KB: NAE
  Na+ pKB ± SEM: NAE
  pα ± SEM: NAE
  α: NAE
δ-OR WT (HEK293)
  Hill Coefficient: 0.56 ± 0.16
δ-OR WT (HEK293); allosteric model, orthosteric ligand DADLE
  Na+ pKB ± SEM: 1.88 ± 0.10
δ-OR WT (HEK293); [5]
  pα ± SEM: 1.93 ± 0.34
  α: 0.012
δ-OR WT (HEK293); read-out: Na+ KB, allosteric model, orthosteric ligand DADLE
  Kb: 13.3 mM
δ-OR D95A (HEK293)
  Hill Coefficient: NAE
  Na+ KB: NAE
  Na+ pKB ± SEM: NAE
  pα ± SEM: NAE
  α: NAE
